Test results published in patent US5428020A, “Cysteine (NPYS)-containing peptides and use thereof for inhibiting platelet aggregation” (Matsueda; Rei, priority 1994, dated 1995).
* marks the point of attachment. Npys = O=[N+]([O-])c1cccnc1S*

Experiments:
papain = target: T1, papain (Carica papaya, UniProt P00784); settings: Teno et al., Int. J. Peptide Protein Res. 30, 93-98 (1987); cited from earlier work
T1 sequence (P00784 134-345): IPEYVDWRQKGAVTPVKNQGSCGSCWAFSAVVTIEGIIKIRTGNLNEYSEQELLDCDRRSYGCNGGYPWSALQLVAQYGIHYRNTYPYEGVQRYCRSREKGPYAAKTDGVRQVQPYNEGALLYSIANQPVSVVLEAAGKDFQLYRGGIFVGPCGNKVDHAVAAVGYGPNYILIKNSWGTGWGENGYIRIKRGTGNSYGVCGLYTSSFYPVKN

calpain = test: Calpain inhibition, fluorogenic substrate succinyl-Leu-Tyr-amino-4-methylcumarin; format: biochemical; settings: 90 mM calpain; 1 mM substrate; 25° C.; pH 7.5; 5 mM CaCl2; read-out: Calpain Inhibitory Potency IC50
Procedure: 77, 1565 (1986). A calpain preparation (5~10 μl) was placed on a floating filter membrane (Marusyk et al., Anal. Biochem. 105, 403 (1980)) (Millipore type VMWP) over a buffer containing 50 mM Tris/HCl, pH 7.5 and 2.5 mM EDTA for 45-60 minutes, carefully removed and used for the following inhibition study. Aliquots (25 μl) of the enzyme (calpain) and buffer or synthetic peptide were added to a cuvette at 25° C. containing 1 mM succinyl-Leu-Tyr-amino-4-methylcumarin as the substrate in a buffer consisting of 60 mM Tris/HCl, pH 7.5, 2.5% DMSO and 5 mM CaCl2. The rate of substrate hydrolysis was continuously recorded on a Perkin-Elmer LS-5 fluorescence spectrophotometer connected to a R100 chart recorder. […] The IC50 was calculated from the dose-dependent curve for each inhibitor. The IC50 corresponds to that concentration of inhibitory peptide that produced 50% inhibition of calpain activity. In all cases, […] was utilized.

human platelets = test: Inhibition of agonist-induced aggregation of washed human platelets (aggregometer); format: cell-based; design: key to Inhibition of platelet aggregation, PMA / Inhibition of platelet aggregation, Thrombin / Inhibition of platelet aggregation, Plasmin / Inhibition of platelet aggregation, ADP / Inhibition of platelet aggregation, Collagen / Inhibition of platelet aggregation, U46619 / Inhibition of platelet aggregation, A23187: "+" indicates inhibition of platelet aggregation; "-" indicates the absence of inhibition of platelet aggregation; "partial" indicates a partial inhibition of platelet aggregation; settings: for Inhibition of platelet aggregation, A23187: agonist A23187 2.5 uM; for Inhibition of platelet aggregation, A23187 / Inhibition of platelet aggregation, ADP / Inhibition of platelet aggregation, PMA / Inhibition of platelet aggregation, U46619 / Inhibition of platelet aggregation, Collagen / Inhibition of platelet aggregation, Plasmin / Inhibition of platelet aggregation, Thrombin: inhibitor peptide 0.8 nm, 37° C.; for Inhibition of platelet aggregation, ADP: agonist ADP 20 uM; for Inhibition of platelet aggregation, PMA: agonist PMA 0.016 uM; for Inhibition of platelet aggregation, U46619: agonist U46619 1 uM; for Inhibition of platelet aggregation, Collagen: agonist collagen 4 ug/ml; for Inhibition of platelet aggregation, Plasmin: agonist plasmin 0.025 uM; for Inhibition of platelet aggregation, Thrombin: agonist thrombin 0.02 uM
Procedure: Platelet-rich plasma was prepared by differential centrifugation (120×g, 30 min, 23° C.) of fresh whole human blood drawn into acid/citrate/dextrose (citric acid 0.079 M, sodium citrate, 0.085 M and dextrose 0.180 M) in a ratio of 1 ml of anticoagulant solution per 9 ml of blood. The platelets were washed and their suspensions prepared by a modification of the method of Mustard, et al., Brit. J. Haemat. 22, 193-204 (1972). The modifications included incubation of platelet-rich plasma with prostaglandin E1, hirudin and apyrase and two successive washes of the platelets with Tyrode-albumin buffer (without Ca^++) containing hirudin and apyrase, and apyrase alone. Platelet aggregation in the presence of each agonist and inhibitor peptide (0.8 nm) was performed at 37° C. under constant stirring (1100 rpm) conditions in a chronolog (Lumi) aggregometer. The total volume of the incubation mixture in the sample cuvette was 500 μl and the platelet concentration was adjusted to 5×10^8 /ml. The reference cuvette contained the suspension buffer. Platelet aggregation was initiated by the addition of the agonist to the sample cuvette. The data is indicated in the following table wherein "+" indicates inhibition of platelet aggregation, "-" indicates the absence of inhibition of platelet aggregation, and "partial" indicates a partial inhibition of platelet aggregation.

plasmin = plasmin (Homo sapiens, UniProt P00747); test: Amidolytic activity of plasmin; format: biochemical
platelets [1] = test: Platelet cAMP levels; format: cell-based, human
aggregen = test: Thrombin- and plasmin-induced cleavage of labeled aggregen in intact radiolabeled platelets; format: cell-based, human
thrombin [2] = target: T2, thrombin (Homo sapiens, UniProt P00734); test: Amidolytic activity of thrombin; format: biochemical
thrombin [3] = target: T2, thrombin; test: Fibrinogenolytic activity of thrombin; format: biochemical
platelets [4] = test: Platelet shape change induced by thrombin and plasmin; format: cell-based, human

Sequence of plasmin (P00747 581-810 limits assumed, species assumed): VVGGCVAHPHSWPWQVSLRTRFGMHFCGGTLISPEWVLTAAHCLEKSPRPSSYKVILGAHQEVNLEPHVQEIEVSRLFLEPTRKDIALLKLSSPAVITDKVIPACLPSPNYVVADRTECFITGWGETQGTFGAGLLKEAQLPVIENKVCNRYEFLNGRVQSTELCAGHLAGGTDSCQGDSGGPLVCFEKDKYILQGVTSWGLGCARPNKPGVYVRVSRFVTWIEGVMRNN
Sequence of plasmin (P00747 97-580 partner limits assumed, species assumed): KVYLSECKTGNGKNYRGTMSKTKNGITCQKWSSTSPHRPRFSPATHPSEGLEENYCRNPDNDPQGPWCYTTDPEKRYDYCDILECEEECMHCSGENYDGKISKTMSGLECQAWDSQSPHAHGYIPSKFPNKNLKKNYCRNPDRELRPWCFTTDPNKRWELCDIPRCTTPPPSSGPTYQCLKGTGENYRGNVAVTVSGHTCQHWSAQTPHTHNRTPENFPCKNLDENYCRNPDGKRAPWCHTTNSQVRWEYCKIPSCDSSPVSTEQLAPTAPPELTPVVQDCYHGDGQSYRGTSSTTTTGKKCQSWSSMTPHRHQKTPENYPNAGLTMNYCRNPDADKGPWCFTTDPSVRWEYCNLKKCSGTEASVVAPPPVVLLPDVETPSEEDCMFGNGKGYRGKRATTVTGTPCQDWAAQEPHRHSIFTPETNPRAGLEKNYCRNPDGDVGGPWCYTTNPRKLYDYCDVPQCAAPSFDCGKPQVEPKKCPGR

Substance	activity in inhibiting the thiol protease papain (papain)	IC50 (calpain) [µM]	Inhibition of platelet aggregation, A23187 (human platelets)	Inhibition of platelet aggregation, ADP (human platelets)	Inhibition of platelet aggregation, PMA (human platelets)	Inhibition of platelet aggregation, U46619 (human platelets)	Inhibition of platelet aggregation, Collagen (human platelets)	Inhibition of platelet aggregation, Plasmin (human platelets)	Inhibition of platelet aggregation, Thrombin (human platelets)	inhibition of amidolytic activity of plasmin (plasmin)	platelet-cAMP levels (platelets [1])	thrombin- and plasmin induced cleavage of [^3 H]-5'-p-fluorosulfonylbenzoyl adenosine-labeled aggregen (aggregen)	inhibition of amidolytic activity of thrombin (thrombin [2])	aggregation induced by any of the other agonists tested (human platelets; agonists other than thrombin and plasmin)	inhibition of fibrinogenolytic activity of thrombin (thrombin [3])	effect on platelet shape change introduced by thrombin and plasmin (platelets [4])
Gln-Val-Val-Ala-Gly (QVVAG; printed: Gln-Val-Val-Ala-Gly) [QVAAG, pentapeptide of kininogen D2 and D3 repeats]	weak activity															
TFA.H-Ala-Gln-Val-Val-CYs (NpyS)-GlY-NH2 (H-AQVV-{Cys(NpyS)-Gly-NH2}; also: TFA salt) [Example 4]		16	partial	+	+	+	+	+	+							
TFA.H-Arg-Gln-Val-Val-Cys(NPYS)-GlY-NH2 (H-RQVVC(Npys)G-NH2; also: TFA salt) [Example 3]		55	partial	+	+	+	+	+	+							
TFA.H-Gln-Val-Val-Cys(NpyS)-Gly-NH2 (H-QVVC(Npys)G-NH2; also: TFA salt) [Example 5]		36	partial	+	+	+	+	+	+							
TFA.H-Phe-Gln-Leu-Val-Cys(NpyS)-Gly-NH2 (H-FQLVC(Npys)G-NH2; also: TFA salt) [Example 2]		5.6	partial	partial	partial	partial	partial	+	+							
TFA.H-Phe-Gln-Val-Val-Cys(NpyS)-Gly-NH2 (H-FQVVC(Npys)G-NH2; also: TFA salt) [Example 1]		4.1	-	-	-	-	-	+	+	did not inhibit	did not raise	completely inhibited	did not inhibit	did not inhibit	did not inhibit	no effect
